Read-outs that look alike come from different tables or passages of the source.

The test system of assay [1] is H3K27Me3 methylation in Karpas-422 cells. Kind of assay: H3K27Me3 cell method, inhibition of H3K27Me3 methylation (Test Example 2). Format: cell-based, human. To be noted: Homo sapiens, KARPAS-422, 72 h. The method, then:
Karpas-422 (Nanjing Kebai, CBP60629) cells were seeded in a 96-well plate (Corning, 3894) at 15,000 cells per well in culture medium (80% 1640 (Hyclone, SH30809.01)+20% FBS (Corning, 35-081-CV)), and then added with different concentrations of compounds for treatment. The cell growth group without adding compounds is used as a positive control (maximum signal control), and the medium is used as a negative control (minimum signal control), while ensuring that in each reaction well, the final concentration of DMSO was 0.2%. Compounds and cells were incubated for 3 days in a cell culture incubator (37° C., 5% CO2). The 96-well plate was taken out from the cell culture incubator and equilibrated to room temperature, and 25 ul of cell suspension was taken out into a 384-well plate. The CCK8 (Beiyuntian, C0040) detection reagent was added, incubated at 37° C. for 1 h, and […] was detected. The rest of the cells followed the procedure of the kit EPIgeneous H3K27Me3 cellular kit (Cisbio, 62KC3PAE) to carry out experiment, read HTRF signal with BMG PHERAStar. […] By GraphPad Prism 6 with log(inhibitor)vs.response-Variable slope model simulation, the IC50 of the compound on cell activity inhibition was calculated. The fitting equation is: Y=Bottom+(Top−Bottom)/(1+10^((Log IC50−X)*HillSlope)), wherein Y represents the inhibition rate, and X represents the known concentration of the compound after Log.

The target of a further assay is T1, EZH2/SUZ/EED (Homo sapiens, UniProt O75530+Q15022+Q15910).
T1 construct: purchased BPS 51003
T1 sequence (Q15910 2-746 limits assumed): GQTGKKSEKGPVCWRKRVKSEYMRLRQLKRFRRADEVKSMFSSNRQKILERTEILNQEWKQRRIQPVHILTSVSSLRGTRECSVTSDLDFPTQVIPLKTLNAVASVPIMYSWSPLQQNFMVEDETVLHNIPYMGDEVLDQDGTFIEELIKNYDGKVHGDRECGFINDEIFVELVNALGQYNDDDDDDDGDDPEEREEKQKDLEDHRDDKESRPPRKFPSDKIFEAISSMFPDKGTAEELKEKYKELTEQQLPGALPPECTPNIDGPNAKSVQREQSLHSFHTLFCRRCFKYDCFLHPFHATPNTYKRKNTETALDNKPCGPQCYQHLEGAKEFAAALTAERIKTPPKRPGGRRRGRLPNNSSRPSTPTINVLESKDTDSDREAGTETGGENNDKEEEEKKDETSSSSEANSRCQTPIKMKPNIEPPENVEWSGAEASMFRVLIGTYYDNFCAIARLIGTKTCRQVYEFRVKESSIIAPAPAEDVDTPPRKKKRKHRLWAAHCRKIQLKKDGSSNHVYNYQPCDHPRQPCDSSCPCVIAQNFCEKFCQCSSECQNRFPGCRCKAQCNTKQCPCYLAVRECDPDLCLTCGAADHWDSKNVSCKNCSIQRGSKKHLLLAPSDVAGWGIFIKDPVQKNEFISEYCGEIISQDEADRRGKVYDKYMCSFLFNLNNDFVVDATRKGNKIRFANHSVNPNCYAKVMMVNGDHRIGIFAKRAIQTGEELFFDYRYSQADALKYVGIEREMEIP
T1 sequence (Q15022 2-739 partner limits assumed): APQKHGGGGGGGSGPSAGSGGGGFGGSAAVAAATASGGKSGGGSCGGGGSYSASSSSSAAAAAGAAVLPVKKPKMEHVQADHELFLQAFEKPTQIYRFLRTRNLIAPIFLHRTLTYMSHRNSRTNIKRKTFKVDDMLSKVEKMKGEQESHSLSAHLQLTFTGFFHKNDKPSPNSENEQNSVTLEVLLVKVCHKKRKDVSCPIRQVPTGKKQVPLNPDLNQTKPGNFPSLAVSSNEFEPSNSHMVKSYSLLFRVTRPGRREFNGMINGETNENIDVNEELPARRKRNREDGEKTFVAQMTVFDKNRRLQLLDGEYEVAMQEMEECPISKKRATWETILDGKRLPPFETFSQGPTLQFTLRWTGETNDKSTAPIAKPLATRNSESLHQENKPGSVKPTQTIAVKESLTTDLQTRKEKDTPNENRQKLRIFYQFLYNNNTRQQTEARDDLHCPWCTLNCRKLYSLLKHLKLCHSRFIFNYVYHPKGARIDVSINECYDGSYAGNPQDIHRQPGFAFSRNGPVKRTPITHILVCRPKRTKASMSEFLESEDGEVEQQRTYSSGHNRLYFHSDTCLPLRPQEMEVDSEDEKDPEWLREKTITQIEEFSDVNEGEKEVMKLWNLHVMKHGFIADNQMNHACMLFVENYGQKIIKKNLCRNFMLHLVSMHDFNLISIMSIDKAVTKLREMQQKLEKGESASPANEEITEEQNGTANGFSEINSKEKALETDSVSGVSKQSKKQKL
T1 sequence (O75530 2-441 partner limits assumed): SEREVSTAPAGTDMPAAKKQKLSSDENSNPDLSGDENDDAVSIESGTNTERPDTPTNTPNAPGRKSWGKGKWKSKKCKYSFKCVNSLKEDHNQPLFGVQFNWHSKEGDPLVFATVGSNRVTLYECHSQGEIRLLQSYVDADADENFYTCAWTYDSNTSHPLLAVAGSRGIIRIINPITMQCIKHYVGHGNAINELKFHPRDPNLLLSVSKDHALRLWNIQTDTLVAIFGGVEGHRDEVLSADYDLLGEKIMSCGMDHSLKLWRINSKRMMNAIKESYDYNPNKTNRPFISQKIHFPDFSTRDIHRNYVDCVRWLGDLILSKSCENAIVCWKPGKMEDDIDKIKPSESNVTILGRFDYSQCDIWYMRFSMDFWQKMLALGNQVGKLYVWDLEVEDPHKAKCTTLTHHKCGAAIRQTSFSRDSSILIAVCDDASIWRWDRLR
Kind of assay: Inhibitory effect on EZH2 by the MTase-Glo method (Test Example 1). Type of assay: biochemical. The note with it: EZH2/SUZ/EED 6.25 nM, H3 peptide 10 μM, SAM 3 μM, 30° C. 3 h, read-out: Test Example 1 WT EZH2 IC50. The method, then:
(§1) The compound was dissolved in DMSO, and the compound was serially diluted using ECHO665 and transferred to a 384-well reaction plate (Corning, 3824). A sample containing only DMSO was added as a positive control (maximum signal control) and a negative control (minimum signal control), while ensuring that the final DMSO content in each reaction well was 0.5%. The protein was configured in reaction buffer (50 mM Bicine, 0.01% Triton X-100, 1 mM DTT, 0.01% BSA, pH 7.6), such that the final reaction concentrations of EZH2/SUZ/EED (BPS, 51003) protein solution and EZH1/SUZ/EED (BPS, 51006) were 6.25 nM and 25 nM, respectively. The negative control (minimum signal control) used an equal amount of buffer instead of protein solution. The prepared protein solution was added to the 384-well reaction plate and pre-incubated at room temperature for 15 minutes. The mixture of the substrate H3 peptide fragment (custom-synthesized by GenScript, biotinylated Histone H3(21-44) peptide ([…]-GG-K(Biotin)-OH)) prepared in the reaction buffer and SAM (Promega, V7601) was added into the 384-well plate, such that the final reaction concentration of H3 peptide fragment was 10 μM, and the final concentration of SAM was 3 μM. The mixture was centrifuged at 1000 rpm for 1 min. The 384-well reaction plate was placed in a constant temperature shaker and incubate at 30° C. for 3 h at a speed of 300 rpm. Then the detection reagent was added according to the experimental process of the kit MTase-Glo (Promega, V7601) and incubated.
(§2) After incubation, read with BMG PHERAStar. The luminescence signals obtained by positive control (maximum signal control) and negative control (minimum signal control) were normalized to obtain the inhibition rate of different concentrations of compounds. Then, the IC50 of the compound on the enzyme activity inhibition was calculated by GraphPad Prism 6 with log(inhibitor) vs. response-Variable slope model fitting. The fitting equation is: Y=Bottom+(Top−Bottom)/(1+10^((Log IC50−X)*HillSlope)), wherein Y represents the known percentage remaining enzyme activity, and X represents the known activity after Log compound concentration.

Another assay concerns the target T2, EZH1/SUZ/EED (Homo sapiens, UniProt O75530+Q15022+Q92800).
T2 construct: purchased BPS 51006
Kind of assay: Inhibitory effect on EZH1 by the MTase-Glo method (Test Example 1). Type of assay: biochemical. The note with it: EZH1/SUZ/EED 25 nM, H3 peptide 10 μM, SAM 3 μM, 30° C. 3 h, read-out: Test Example 1 WT EZH1 IC50. The protocol: as §1, §2

[2] abbreviates: Karpas-422 cells, 3 days incubation, HTRF signal, read-out: Test Example 2 H3K27Me3 inhibition (Karpas-422) IC50.

T2 sequence (Q92800 2-747 limits assumed): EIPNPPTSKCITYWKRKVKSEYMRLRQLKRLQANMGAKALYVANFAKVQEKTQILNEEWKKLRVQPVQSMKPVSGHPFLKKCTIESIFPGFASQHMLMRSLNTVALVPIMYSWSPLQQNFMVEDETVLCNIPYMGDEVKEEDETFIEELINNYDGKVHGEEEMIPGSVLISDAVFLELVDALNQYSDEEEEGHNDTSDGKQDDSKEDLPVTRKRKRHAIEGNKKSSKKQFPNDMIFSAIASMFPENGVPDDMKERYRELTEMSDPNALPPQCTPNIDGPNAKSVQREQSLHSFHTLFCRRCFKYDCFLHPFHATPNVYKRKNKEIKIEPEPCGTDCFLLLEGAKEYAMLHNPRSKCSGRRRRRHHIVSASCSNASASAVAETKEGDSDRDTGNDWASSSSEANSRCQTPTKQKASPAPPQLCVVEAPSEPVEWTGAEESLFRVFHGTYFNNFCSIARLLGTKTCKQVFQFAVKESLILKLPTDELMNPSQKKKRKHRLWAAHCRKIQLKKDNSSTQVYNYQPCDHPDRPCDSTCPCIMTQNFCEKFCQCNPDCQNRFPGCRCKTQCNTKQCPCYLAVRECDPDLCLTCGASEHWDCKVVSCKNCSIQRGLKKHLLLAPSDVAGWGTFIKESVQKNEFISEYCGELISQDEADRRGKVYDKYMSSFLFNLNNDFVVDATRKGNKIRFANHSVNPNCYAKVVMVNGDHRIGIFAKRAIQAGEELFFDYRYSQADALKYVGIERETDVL
T2 sequence (Q15022 2-739 partner limits assumed): as the sequence (Q15022 2-739 partner limits assumed) above
T2 sequence (O75530 2-441 partner limits assumed): as the sequence (O75530 2-441 partner limits assumed) above

As a reminder, the IC50 is the concentration needed to halve the response being measured. Consider `CON(C)C1CCC(C2COc3c(Cl)cc(C(=O)NCc4c(C)cc(C)[nH]c4=O)c(C)c3O2)CC1` (single isomer, unassigned) [Compound 78], for which the IC50 in assay [1] (read-out: Test Example 2 H3K27Me3 inhibition (Karpas-422) IC50(nM)) is 370 nM; at EZH2/SUZ/EED, 11.9 nM.
With `Cc1cc(C)c(CNC(=O)c2cc(Cl)c3c(c2C)OC(C2CCC(N4CCOCC4)CC2)CO3)c(=O)[nH]1` (single isomer, unassigned) [Compound 81], the IC50 in assay [1] (setting [2]) was more than 1000 nM; on EZH2/SUZ/EED, 31 nM.
On the same counts, the results for `COC1CN([C@H]2CC[C@H]([C@H]3COc4c(Cl)cc(C(=O)NCc5c(SC)cc(C)[nH]c5=O)c(C)c4O3)CC2)C1` [Compound 9] are 14.2 nM and 3.1 nM.
Turning to `CSc1cc(C)[nH]c(=O)c1CNC(=O)c1cc(Cl)c2c(c1C)O[C@H]([C@H]1CC[C@H](N3CC(OC4CC4)C3)CC1)CO2` [Compound 12], the results for the IC50 (in assay [1] (setting [2]); at EZH2/SUZ/EED) were 9.4 nM and 2.6 nM, respectively.
On the same counts, the results for `CSc1cc(C)[nH]c(=O)c1CNC(=O)c1cc(Cl)c2c(c1C)O[C@@H]([C@H]1CC[C@H](N3CC4COCC4C3)CC1)CO2` (some centres unmarked) [Compound 15] are 101 nM and 2.1 nM.
Consider `CO[C@H]1CCN([C@H]2CC[C@H]([C@H]3COc4c(Cl)cc(C(=O)NCc5c(SC)cc(C)[nH]c5=O)c(C)c4O3)CC2)C1` [Compound 40], for which the IC50 in assay [1] (setting [2]) amounted to 8.3 nM.
`CO[C@@H]1CCN([C@H]2CC[C@H]([C@H]3COc4c(Cl)cc(C(=O)NCc5c(SC)cc(C)[nH]c5=O)c(C)c4O3)CC2)C1` [Compound 42]: the IC50 was determined as 47.1 nM in assay [1] (setting [2]) and 8.6 nM on EZH1/SUZ/EED.
On the same counts, the results for `CSc1cc(C)[nH]c(=O)c1CNC(=O)c1cc(Cl)c2c(c1C)O[C@@H]([C@H]1CC[C@H](N3CC4(CCO4)C3)CC1)CO2` [Compound 46] are 65.8 nM and 7.7 nM.
Turning to `Cc1cc(C)c(CNC(=O)c2cc(Cl)c3c(c2C)OC(C2CCC(N4CC(C(C)(C)O)C4)CC2)CO3)c(=O)[nH]1` (centres unmarked) [Compound 85], the results for the IC50 (in assay [1] (setting [2]); on EZH2/SUZ/EED) were 95.5 nM and 10.5 nM, respectively.
On to `Cc1cc(C)c(CNC(=O)c2cc(Cl)c3c(c2C)O[C@@H](C2CCN(CC4COC4)CC2)CO3)c(=O)[nH]1` [Compound 86], for which the values for the IC50 (in assay [1] (setting [2]); at EZH2/SUZ/EED) were more than 1000 nM and 20.1 nM, respectively.
On the same counts, the results for `Cc1cc(C)c(CNC(=O)c2cc(Cl)c3c(c2C)O[C@@H](C2CCN(C4COC4)CC2)CO3)c(=O)[nH]1` [Compound 88] are 310 nM and 29.5 nM.
As for `COc1cc(C)[nH]c(=O)c1CNC(=O)c1cc(Cl)c2c(c1C)O[C@@H]([C@H]1CC[C@H](N3CC4COCC4C3)CC1)CO2` (some centres unmarked) [Compound 96], the IC50 at EZH1/SUZ/EED is 167 nM; on EZH2/SUZ/EED it was 7 nM.
Turning to `COc1cc(C)[nH]c(=O)c1CNC(=O)c1cc(Cl)c2c(c1C)O[C@@H]([C@H]1CC[C@H](N3CC(OC)C3)CC1)CO2` [Compound 98], the IC50 in assay [1] (setting [2]) was 462 nM; on EZH2/SUZ/EED, 5.7 nM.
For the compound `COCCOC1CN([C@H]2CC[C@H]([C@H]3COc4c(Cl)cc(C(=O)NCc5c(OC)cc(C)[nH]c5=O)c(C)c4O3)CC2)C1` [Compound 102], the concentration for half-maximal inhibition (IC50) at EZH1/SUZ/EED was found to be 655 nM; at EZH2/SUZ/EED, 2.6 nM.
For `COCCN(C)[C@H]1CC[C@H]([C@H]2COc3c(Cl)cc(C(=O)NCc4c(OC)cc(C)[nH]c4=O)c(C)c3O2)CC1` [Compound 108] the same measures were 69.3 nM and 5 nM.
For `COc1cc(C)[nH]c(=O)c1CNC(=O)c1cc(Cl)c2c(c1C)O[C@@H]([C@H]1CC[C@@H](N3CC4(CC4)C3)CC1)CO2` [Compound 111] the same measures were 27.3 nM and 13.4 nM.
For `COc1cc(C)[nH]c(=O)c1CNC(=O)c1cc(Cl)c2c(c1C)O[C@@H]([C@H]1CC[C@@H](N3CC4CC4C3)CC1)CO2` (some centres unmarked) [Compound 113] the same measures were 91.2 nM and 9.4 nM.
For the compound `COc1cc(C)[nH]c(=O)c1CNC(=O)c1cc(Cl)c2c(c1C)O[C@@H]([C@H]1CC[C@@H](N3CC4C(C3)C4OC)CC1)CO2` (some centres unmarked) [Compound 115], the IC50 on EZH1/SUZ/EED was found to be 74.8 nM; at EZH2/SUZ/EED, 4.9 nM.
As to `CSc1cc(C)[nH]c(=O)c1CN(C)C(=O)c1cc(Cl)c2c(c1C)O[C@@H]([C@H]1CC[C@@H](N(C)C)CC1)CO2` [Compound 128], the IC50 is 43.2 nM in assay [1] (setting [2]) and 9.5 nM on EZH2/SUZ/EED.
For the compound `Cc1cc(C)c(CNC(=O)c2c(C)c3c(c(Cl)c2F)OC[C@H]([C@H]2CC[C@H](N(C)C)CC2)O3)c(=O)[nH]1` [Compound 132], the results for the IC50 on EZH1/SUZ/EED and on EZH2/SUZ/EED were 722 nM and 7.3 nM, respectively.
For `COc1c(Cl)c2c(c(C)c1C(=O)NCc1c(C)cc(C)[nH]c1=O)O[C@@H]([C@H]1CC[C@@H](N(C)C)CC1)CO2` [Compound 134] the same measures were 125 nM and 6.6 nM.
On the same counts, the results for `COc1c(Cl)c2c(c(C)c1C(=O)NCc1c(C)cc(C)[nH]c1=O)O[C@@H]([C@H]1CC[C@H](N(C)C)CC1)CO2` [Compound 135] are 5600 nM and 80.1 nM.
On the same counts, the results for `COC1C[N+]([O-])([C@H]2CC[C@@H]([C@H]3COc4c(Cl)cc(C(=O)NCc5c([S+](C)[O-])cc(C)n(O)c5=O)c(C)c4O3)CC2)C1` (some centres unmarked) [Compound 136] are 192 nM and 42.5 nM.
Consider `COC1CN([C@H]2CC[C@@H]([C@H]3COc4c(Cl)cc(C(=O)NCc5c([S+](C)[O-])cc(C)[nH]c5=O)c(C)c4O3)CC2)C1` (some centres unmarked) [Compound 139], for which the values for the IC50 on EZH1/SUZ/EED and at EZH2/SUZ/EED were 8490 nM and 1260 nM, respectively.
For `COC1CN([C@H]2CC[C@H]([C@H]3COc4c(Cl)cc(C(=O)NCc5c([S+](C)[O-])cc(C)[nH]c5=O)c(C)c4O3)CC2)C1` (some centres unmarked) [Compound 140] the same measures were 8910 nM and 897 nM.
On the same counts, the results for `Cc1cc(C)c(CNC(=O)c2cc(Cl)c3c(c2Cl)O[C@H]([C@H]2CC[C@@H](N(C)C)CC2)CO3)c(=O)[nH]1` [Compound 142] are 7610 nM and 1160 nM.
Consider `Cc1cc(C)c(CNC(=O)c2cc(Cl)c3c(c2Cl)O[C@@H]([C@H]2CC[C@H](N(C)C)CC2)CO3)c(=O)[nH]1` [Compound 144], for which the figures for the IC50 at EZH1/SUZ/EED and on EZH2/SUZ/EED were 769 nM and 15.6 nM, respectively.
For `Cc1cc(C)c(CNC(=O)c2cc(Cl)c3c(c2Cl)OC[C@@H]([C@H]2CC[C@H](N(C)C)CC2)O3)c(=O)[nH]1` [Compound 148] the same measures were 2830 nM and 67.1 nM.
On to `COC1CN([C@H]2CC[C@H]([C@H]3COc4c(Cl)cc(C(=O)NCc5c(SC)cc(C)[nH]c5=O)c(Cl)c4O3)CC2)C1` [Compound 150], for which the IC50 came to 22.2 nM at EZH1/SUZ/EED and 11.6 nM on EZH2/SUZ/EED.
In the case of `COc1cc(C)[nH]c(=O)c1CNC(=O)c1cc(Cl)c2c(c1Cl)O[C@@H]([C@H]1CC[C@@H](N3CC(OC)C3)CC1)CO2` [Compound 151], the IC50 in assay [1] (setting [2]) turned out to be 13.2 nM.
On to `COC1CN([C@H]2CC[C@H]([C@H]3COc4c(C#N)cc(C(=O)NCc5c(SC)cc(C)[nH]c5=O)c(C)c4O3)CC2)C1` [Compound 154], for which the IC50 amounted to 30 nM at EZH1/SUZ/EED and 4.2 nM at EZH2/SUZ/EED.
Consider `[2H]C([2H])([2H])Sc1cc(C)[nH]c(=O)c1CNC(=O)c1cc(Cl)c2c(c1C)O[C@@H](C1CCC(N3CC(OC)C3)CC1)CO2` (some centres unmarked) [Compound 177], for which the IC50 on EZH1/SUZ/EED was found to be 2.3 nM; on EZH2/SUZ/EED, 1.5 nM.

(Values after patent publication US20260184697A1, “EZH1/2 INHIBITOR, PREPARATION THEREOF, AND USE THEREOF IN ANTI-TUMOR THERAPY” (JIANGSU TASLY DIYI PHARMACEUTICAL CO., LTD., priority 2022, published 2026).)
